This is an account of results in ChEMBL document CHEMBL1201862, “PubChem BioAssay data set” (2004).

Some test systems named below: 786-0; A498; ACHN; HOP-62; HT-29; KM12; LOX IMVI; MCF7; MDA-MB-435; Malme-3M; OVCAR-4; PC-3; RPMI-8226; SF-268; SK-MEL-5; SNB-75; U-251; UACC-257; UACC-62.
Holding throughout (assay): NCI tumour cell line growth inhibition, 48 h

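Step 1: Grow cells in 96-well plates. Step 2: Expose to compound for 48 hours at 5 concentrations. Step 3: Interpolate endpoints linearly; if unreached, use highest concentration. GI50 = concentration required for 50% inhibition of growth.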 Calls of active or inactive are those of the source. Cut-off read from the data, not from the text of the source: active = GI50 up to about 1.1 µM and inactive = higher. Where only a bound is given, the exact number is not on record here.

For `CC(=O)Nc1ccc(-c2nc3ccccc3s2)cc1I`, the GI50 with 786-0 is 18.5 µM (inactive); with A498, 6.5 µM (inactive); with ACHN, 26.5 µM (inactive); in the test with HOP-62 it was 15.6 µM (inactive); in the test on HT-29 it was > 65.6 µM (inactive); in the test with KM12, 54 µM (inactive). The GI50 is 24.8 µM (inactive) with LOX IMVI; 0.0463 µM (active) in the test with MCF7; > 94.8 µM (inactive) with MDA-MB-435; 34.8 µM (inactive) in the test on Malme-3M; 8.79 µM (inactive) in the test with OVCAR-4; 41.6 µM (inactive) in the test with PC-3. The GI50 with RPMI-8226 is > 100 µM (inactive); in the test on SF-268 it was 33.4 µM (inactive); with SK-MEL-5, > 100 µM (inactive); in the test on SNB-75 it was 24.2 µM (inactive); in the test with U-251 it was 25.1 µM (inactive); in the test with UACC-257, > 100 µM (inactive). In the test with UACC-62, the GI50 was 22.6 µM (inactive).
Regarding `Oc1cccc2cc(Cl)cnc12`, the GI50 is 23.6 µM (inactive) in the test with 786-0; 23.8 µM (inactive) with A498; 8.95 µM (inactive) in the test with ACHN; 5.77 µM (inactive) in the test with HOP-62; 28.2 µM (inactive) in the test with HT-29; 14.8 µM (inactive) in the test with KM12. Also, the GI50 with LOX IMVI was 5.04 µM (inactive); with MCF7, 3.4 µM (inactive); with MDA-MB-435 it was 14.7 µM (inactive); in the test with Malme-3M it was > 30.3 µM (inactive); with OVCAR-4, 3.38 µM (inactive); in the test with PC-3, 10.6 µM (inactive). Besides, the GI50 with RPMI-8226 was 4.91 µM (inactive); in the test on SF-268, 3.85 µM (inactive); with SK-MEL-5, 8.41 µM (inactive); in the test with SNB-75, 28.1 µM (inactive); with U-251 it was 9.08 µM (inactive); with UACC-257 it was 6.27 µM (inactive). Also, in the test on UACC-62, the GI50 was 5.51 µM (inactive).
On to `O=c1cc(-c2ccccc2)c2ccc(O)c(CN(CCCl)CCCl)c2o1`, for which the GI50 in the test with 786-0 was 18.5 µM (inactive); with A498, 19.1 µM (inactive); in the test on ACHN it was 20.4 µM (inactive); in the test on HOP-62 it was 17.2 µM (inactive); with HT-29 it was 10.3 µM (inactive); in the test with KM12, 17.9 µM (inactive). Further, the GI50 in the test on LOX IMVI is 8.26 µM (inactive); with MCF7, 17.2 µM (inactive); with MDA-MB-435, 19.9 µM (inactive); with Malme-3M, 21 µM (inactive); with OVCAR-4, 34.8 µM (inactive); in the test on PC-3, 17.8 µM (inactive). In addition, the GI50 with RPMI-8226 is 12.6 µM (inactive); in the test on SF-268, 17.5 µM (inactive); with SK-MEL-5 it was 16.9 µM (inactive); in the test with SNB-75, 15.7 µM (inactive); with U-251 it was 22.1 µM (inactive); in the test on UACC-257, 16.4 µM (inactive). Besides, in the test with UACC-62, the GI50 was 16.9 µM (inactive).
`CCSC(=O)/C=C1\CN(C(=O)OC(C)(C)C)C1C(=O)OC(C)(C)C` (configuration not stated): the GI50 in the test with 786-0 was 1.87 µM (inactive); in the test on A498, 11.2 µM (inactive); in the test with ACHN it was 3.63 µM (inactive); with HOP-62, 14.1 µM (inactive); with HT-29, 4.23 µM (inactive); in the test with KM12, 3.38 µM (inactive). Further, the GI50 with LOX IMVI is 1.45 µM (inactive); with MCF7 it was 2.38 µM (inactive); with MDA-MB-435, 2.74 µM (inactive); in the test on Malme-3M, 1.95 µM (inactive); with OVCAR-4, 2.38 µM (inactive); in the test with PC-3 it was 4.94 µM (inactive). Besides, the GI50 with RPMI-8226 was 1.87 µM (inactive); with SF-268 it was 4.32 µM (inactive); in the test on SK-MEL-5, 3.37 µM (inactive); with SNB-75, 2.59 µM (inactive); in the test with U-251, 6.19 µM (inactive); in the test on UACC-257, 4.21 µM (inactive). Also, the GI50 with UACC-62 was 3.2 µM (inactive).
For `Nc1cc2c(nc3c4ccccc4c(N)cc3[n+]2-c2cccc3ccccc23)c2ccccc12.Nc1cc2c(nc3c4ccccc4ccc3[n+]2-c2cccc3ccccc23)c2ccccc12`, the GI50 was 1.21 µM (inactive) with 786-0; 3.48 µM (inactive) in the test on A498; 2.18 µM (inactive) in the test on ACHN; 2.81 µM (inactive) in the test on HOP-62; 1.36 µM (inactive) with HT-29; 1.31 µM (inactive) in the test on KM12. Besides, the GI50 is 1.97 µM (inactive) in the test with LOX IMVI; 0.507 µM (active) in the test on MCF7; 1.45 µM (inactive) in the test with MDA-MB-435; 1.6 µM (inactive) with Malme-3M; 1.71 µM (inactive) in the test on OVCAR-4; 0.465 µM (active) in the test on PC-3. Besides, the GI50 with RPMI-8226 was 0.146 µM (active); in the test with SF-268, 3.37 µM (inactive); in the test with SK-MEL-5 it was 1.7 µM (inactive); with SNB-75, 1.68 µM (inactive); in the test with U-251, 0.341 µM (active); in the test on UACC-257, 1.15 µM (inactive). Besides, the GI50 in the test with UACC-62 is 7.89 µM (inactive).
Turning to `C=C1[C@@H](O)C[C@@]23CC[C@@H]4[C@@]5(C)CC[C@@H](OC(C)=O)C(C)(C)[C@@H]5C[C@@H](OC5OC(COC(C)=O)C(O)C(O)C5O)[C@@]4(C)C2=CC[C@H]3[C@H]1C` (some centres not stated), the GI50 is 6.14 µM (inactive) in the test with 786-0; 9.73 µM (inactive) with A498; 9.12 µM (inactive) in the test on ACHN; 11.7 µM (inactive) in the test with HOP-62; 2.1 µM (inactive) in the test on HT-29; 2.1 µM (inactive) in the test with KM12. The GI50 is 3.01 µM (inactive) in the test with LOX IMVI; 2.14 µM (inactive) with MCF7; 4.51 µM (inactive) in the test on MDA-MB-435; 9.48 µM (inactive) in the test on Malme-3M; 5.57 µM (inactive) with OVCAR-4; 3.66 µM (inactive) in the test with PC-3. Besides, the GI50 in the test on RPMI-8226 was 2.84 µM (inactive); with SF-268, 4.82 µM (inactive); in the test on SK-MEL-5 it was 4 µM (inactive); in the test with SNB-75, 3.96 µM (inactive); in the test on U-251, 3.03 µM (inactive); with UACC-257, 11.6 µM (inactive). Moreover, the GI50 in the test with UACC-62 is 6.07 µM (inactive).
As for `Cc1cc(O)cc(O)c1C(=O)O[C@]1(C)C(=O)C=C2C=C(/C=C/C(=O)O)OC=C2C1=O`, the GI50 in the test on 786-0 was > 100 µM (inactive); with A498, > 100 µM (inactive); in the test with ACHN, > 100 µM (inactive); in the test with HOP-62, > 100 µM (inactive); with HT-29 it was 94.4 µM (inactive); in the test with KM12, 41.7 µM (inactive). Further, the GI50 was 37.2 µM (inactive) with LOX IMVI; 47.8 µM (inactive) in the test with MCF7; > 100 µM (inactive) in the test on MDA-MB-435; 67.3 µM (inactive) in the test on Malme-3M; > 100 µM (inactive) with OVCAR-4; > 100 µM (inactive) with PC-3. The GI50 in the test on RPMI-8226 was > 100 µM (inactive); in the test on SF-268, > 100 µM (inactive); in the test on SK-MEL-5 it was > 100 µM (inactive); in the test on SNB-75, 0.76 µM (active); with UACC-257, > 100 µM (inactive); with UACC-62, > 100 µM (inactive).
